Laboratory results published in patent publication US20240024273A1, “TOPICAL ADMINISTRATION OF 2-(DIETHYLAMINO)ETHYL 2-(4-ISOBUTYLPHENYL)PROPRIONATE FOR TREATMENT OF DISEASES” (TECHFIELDS PHARMA CO., LTD., priority 2020, published 2024).
Where two headings read alike, the source gives them in different places.

Legend:
[1] = system: Subjects with Mild to Moderate Osteoarthritis of the Knee; assay: Phase 2 study: safety; assay type: in vivo, human
Description: Safety assessments will be performed at each visit and will include assessment of AEs, vital signs (blood pressure, pulse rate, and oral temperature), clinical laboratories, physical examination, skin irritation, and electrocardiograms (ECGs) as indicated in the study flow chart, Table 14.
Safety assessments will include AEs, vital signs (blood pressures, pulse rate, and oral temperature), clinical laboratories, physical examination, skin irritation, and ECGs at various time points during the study as indicated in the study flow chart.
Adverse events of interest include: local skin reactions around the treated knee(s), upper stomach pain, GI bleeding, serious cardiovascular side effects (e.g., thrombotic events, myocardial infarction, or stroke), jaundice, elevated liver function tests, and nausea.
Safety analyses will be conducted on the SAS. Safety parameters will be listed and summarized using standard descriptive statistics, as appropriate. No formal statistical analyses are planned.

Sprague Dawley rats = assay: Behavioral effects, functional observational battery; assay type: in vivo; conditions: single dermal dose 50, 250, 750 mg/kg
Acetic Acid Induced Pain = assay: Acetic acid induced pain (writhing); assay type: in vivo, ICR mice
LPS induced fever = LPS induced fever model; assay type: in vivo, SD Rats; conditions: 30 and 90 mg/kg; 4 and 6 hour time points
[2] = Phase 1 clinical study: plasma pharmacokinetics of prodrug and ibuprofen; assay type: in vivo, human; conditions: for AUC0-12 / AUC(0-t) / Cmax / Tmax: plasma, topical or ocular; for AUC0-12: read-out: prodrug AUC0-12; for AUC(0-t): read-out: prodrug AUClast; for Cmax: read-out: prodrug Cmax; for Tmax: read-out: prodrug Tmax, median (range)
Experimental: Following a 5-day washout period, 2-(diethylamino)ethyl 2-(4-isobutylphenyl)propionate was administered b.i.d. during Days 6-11, and a morning dose only was administered to Day 12. Blood samples were collected for PK analysis over the 120-hour post-dose period following the Day 12 dose. Additionally, pre-dose blood samples were collected on Day 7 through Day 11 to evaluate steady-state status.
The same study procedures were followed as described in Part 1.
For single dose PK, serial blood samples were collected on Day 1 dose at the following time points: 0 (pre-dose), 0.25, 0.5, 0.75, 1, 1.5, 2, 2.5, 3, 4, 5, 6, 8, 10, 12, 18, 24, 48, 72, 96 and 120 hours post-dose.
For multiple-dose PK, serial blood samples were collected on Day 12 at the following time points: 0 (pre-dose), 0.25, 0.5, 0.75, 1, 1.5, 2, 2.5, 3, 4, 5, 6, 8, 10, 12, 18, 24, 48, 72, 96 and 120 hours post-dose.
The relative bioavailability of the single dose 70 mg topical application vs. 70 mg spray application was determined based on AUCtau, AUCinf and Cmax. The 90% confidence intervals (CIs) on the ratio of topical application vs. spray application were calculated.

[3] = human, 17.5 mg, Day 1, 17.5 mg topical
[4] = human, 17.5 mg, Day 12, 17.5 mg b.i.d. topical
[5] = human, 35 mg, Day 1, 35 mg topical
[6] = human, 35 mg, Day 12, 35 mg b.i.d. topical
[7] = human, 70 mg, Day 1, 70 mg topical
[8] = human, 70 mg, Day 12, 70 mg b.i.d. topical
[9] = human, 140 mg, Day 1, 140 mg topical
[10] = human, 140 mg, Day 12, 140 mg b.i.d. topical
[11] = human, 280 mg, Day 1, 280 mg topical
[12] = human, 280 mg, Day 12, 280 mg b.i.d. topical

CCN(CC)CCOC(=O)C(C)c1ccc(CC(C)C)cc1 (centres unmarked) [2-(diethylamino)ethyl 2-(4-isobutylphenyl)propionate]
safety and tolerability ([1]; all three doses (8.75, 17.5, 35 mg/knee BID)): appeared to be safe and were generally well tolerated | gastrointestinal disorder incidences (very mild) ([1]; whole study): 12 incidences | skin irritation incidences ([1]; whole study, total): 8 incidences | neurobehavioral changes (FOB test) (Sprague Dawley rats): 250, and 750 mg/kg of ibuprofenamine were not associated with any | inhibitory effect compared with Vehicle (Acetic Acid Induced Pain; high dose): 2-(4-isobutylphenyl)propionate showed significant inhibitory effect | inhibitory effect (Acetic Acid Induced Pain; low dose): 2-(4-isobutylphenyl)propionate did not show any inhibitory effect in this | LPS induced fever (LPS induced fever): LPS induced fever was attenuated by middle (30 mg/kg) and high | dose proportionality of prodrug and ibuprofen Cmax and AUC0-last ([2]; 17.5 mg to 280 mg, single and multiple): did not increase in a dose-proportional manner | prodrug mean Cmax after 7 days b.i.d., increase ([2]; 140 mg and 280 mg doses): about 2 fold | prodrug Kel ([2]; Day 12, 17.5 mg b.i.d. topical): 0.0241 (N/A) 1/h | prodrug Kel ([2]; Day 12, 70 mg b.i.d. topical): 0.0656 (N/A) 1/h | prodrug Kel ([2]; Day 12, 140 mg b.i.d. topical): 0.0398 (N/A) 1/h | prodrug Kel ([2]; Day 12, 280 mg b.i.d. topical): 0.0374 (0.0310) 1/h | conversion of absorbed prodrug to ibuprofen ([2]; human, in vivo): > 99% | AUC0-12 [2, 3]: 0.837 ng·h/mL | AUC(0-t) [2, 3]: 1.45 ng·h/mL | Cmax [2, 3]: 0.158 ng/mL | Tmax [2, 3]: 8 h | AUC0-12 [2, 4]: 0.809 ng·h/mL | AUC(0-t) [2, 4]: 1.31 ng·h/mL | Cmax [2, 4]: 0.092 ng/mL | Tmax [2, 4]: 8 h | AUC0-12 [2, 5]: 0.34 ng·h/mL | AUC(0-t) [2, 5]: 0.864 ng·h/mL | Cmax [2, 5]: 0.0862 ng/mL | Tmax [2, 5]: 11 h | AUC0-12 [2, 6]: 1.21 ng·h/mL | AUC(0-t) [2, 6]: 2.29 ng·h/mL | Cmax [2, 6]: 0.153 ng/mL | Tmax [2, 6]: 5.12 h | AUC0-12 [2, 7]: 0.836 ng·h/mL | AUC(0-t) [2, 7]: 1.99 ng·h/mL | Cmax [2, 7]: 0.16 ng/mL | Tmax [2, 7]: 10 h | AUC0-12 [2, 8]: 1.1 ng·h/mL | AUC(0-t) [2, 8]: 1.49 ng·h/mL | Cmax [2, 8]: 0.162 ng/mL | Tmax [2, 8]: 3.5 h | AUC0-12 [2, 9]: 0.478 ng·h/mL | AUC(0-t) [2, 9]: 1.45 ng·h/mL | Cmax [2, 9]: 0.116 ng/mL | Tmax [2, 9]: 18 h | AUC0-12 [2, 10]: 1.82 ng·h/mL | AUC(0-t) [2, 10]: 3.6 ng·h/mL | Cmax [2, 10]: 0.305 ng/mL | Tmax [2, 10]: 2.5 h | AUC0-12 [2, 11]: 0.675 ng·h/mL | AUC(0-t) [2, 11]: 4.48 ng·h/mL | Cmax [2, 11]: 0.233 ng/mL | Tmax [2, 11]: 18 h | AUC0-12 [2, 12]: 3.71 ng·h/mL | AUC(0-t) [2, 12]: 11.6 ng·h/mL | Cmax [2, 12]: 0.505 ng/mL
